{"source": "patent US20170050957A1", "about": "“4-AMINO-6-(HETEROCYCLIC)PICOLINATES AND 6-AMINO-2-(HETEROCYCLIC)PYRIMIDINE-4-CARBOXYLATES AND THEIR USE AS HERBICIDES” (Dow AgroSciences LLC, priority 2013, published 2017)", "tested_on": "Wheat and Barley and test plant species", "test": "Post-emergent Test III, herbicidal activity in wheat and barley (Table 17; visual injury, GR20/GR50/GR80/GR90)", "assay_type": "in vivo", "conditions": "21 d; for Visual Growth Reduction (%) 21 Days After Application, CIRAR / Visual Growth Reduction (%) 21 Days After Application, GALAP / Visual Growth Reduction (%) 21 Days After Application, HORVS / Visual Growth Reduction (%) 21 Days After Application, KCHSC / Visual Growth Reduction (%) 21 Days After Application, LAMPU / Visual Growth Reduction (%) 21 Days After Application, MATCH / Visual Growth Reduction (%) 21 Days After Application, PAPRH / Visual Growth Reduction (%) 21 Days After Application, SASKR / Visual Growth Reduction (%) 21 Days After Application, SINAR / Visual Growth Reduction (%) 21 Days After Application, TRZAS / Visual Growth Reduction (%) 21 Days After Application, VERPE / Visual Growth Reduction (%) 21 Days After Application, VIOTR: post-emergent", "procedure,_shortened": "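Greenhouse-grown plants at second to third true leaf stage (about 18/17° C day/night, 14 h photoperiod) sprayed post-emergence with compound in acetone/DMSO/water-based mix with Agri-Dex crop oil and X-77 surfactant at 187 L/ha, at highest rate and 1/2× to 1/16× dilutions. Visual injury scored 0–100% versus untreated plants after 21 d; GR20/GR50/GR80/GR90 from probit analysis.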"}
{"smiles": "COC(=O)c1nc(-c2ccc3cc[nH]c3c2F)cc(N)c1Cl", "note": "[Compound 1.23, Methyl 4-amino-3-chloro-6-(7-fluoro-1H-indol-6-yl)picolinate]", "values": [{"measurement": "Visual Growth Reduction (%) 21 Days After Application, CIRAR", "setting": "CIRAR, 17.5 g ai/ha", "value": "G (0-29)"}, {"measurement": "Visual Growth Reduction (%) 21 Days After Application, CIRAR", "setting": "CIRAR, 35 g ai/ha", "value": "G (0-29)"}, {"measurement": "Visual Growth Reduction (%) 21 Days After Application, CIRAR", "setting": "CIRAR, 70 g ai/ha", "value": "G (0-29)"}, {"measurement": "GR50, CIRAR", "setting": "CIRAR, dose for 50 percent growth reduction, probit analysis", "value": ">140", "unit": "g ai/ha"}, {"measurement": "GR80, CIRAR", "setting": "CIRAR, dose for 80 percent growth reduction, probit analysis", "value": ">140", "unit": "g ai/ha"}, {"measurement": "GR90, CIRAR", "setting": "CIRAR, dose for 90 percent growth reduction, probit analysis", "value": ">140", "unit": "g ai/ha"}, {"measurement": "Visual Growth Reduction (%) 21 Days After Application, GALAP", "setting": "GALAP, 17.5 g ai/ha", "value": "A (95-100)"}, {"measurement": "Visual Growth Reduction (%) 21 Days After Application, GALAP", "setting": "GALAP, 35 g ai/ha", "value": "A (95-100)"}, {"measurement": "Visual Growth Reduction (%) 21 Days After Application, GALAP", "setting": "GALAP, 70 g ai/ha", "value": "A (95-100)"}, {"measurement": "GR50, GALAP", "setting": "GALAP, dose for 50 percent growth reduction, probit analysis", "value": 1, "unit": "g ai/ha"}, {"measurement": "GR80, GALAP", "setting": "GALAP, dose for 80 percent growth reduction, probit analysis", "value": 4, "unit": "g ai/ha"}, {"measurement": "GR90, GALAP", "setting": "GALAP, dose for 90 percent growth reduction, probit analysis", "value": 7, "unit": "g ai/ha"}, {"measurement": "Visual Growth Reduction (%) 21 Days After Application, HORVS", "setting": "HORVS, 17.5 g ai/ha", "value": "G (0-29)"}, {"measurement": "Visual Growth Reduction (%) 21 Days After Application, HORVS", "setting": "HORVS, 35 g ai/ha", "value": "G (0-29)"}, {"measurement": "Visual Growth Reduction (%) 21 Days After Application, HORVS", "setting": "HORVS, 70 g ai/ha", "value": "G (0-29)"}, {"measurement": "GR20, HORVS", "setting": "HORVS, dose for 20 percent growth reduction, probit analysis", "value": ">140", "unit": "g ai/ha"}, {"measurement": "Visual Growth Reduction (%) 21 Days After Application, KCHSC", "setting": "KCHSC, 17.5 g ai/ha", "value": "F (30-44)"}, {"measurement": "Visual Growth Reduction (%) 21 Days After Application, KCHSC", "setting": "KCHSC, 35 g ai/ha", "value": "E (45-59)"}, {"measurement": "Visual Growth Reduction (%) 21 Days After Application, KCHSC", "setting": "KCHSC, 70 g ai/ha", "value": "D (60-74)"}, {"measurement": "GR50, KCHSC", "setting": "KCHSC, dose for 50 percent growth reduction, probit analysis", "value": 35, "unit": "g ai/ha"}, {"measurement": "GR80, KCHSC", "setting": "KCHSC, dose for 80 percent growth reduction, probit analysis", "value": 110, "unit": "g ai/ha"}, {"measurement": "GR90, KCHSC", "setting": "KCHSC, dose for 90 percent growth reduction, probit analysis", "value": ">140", "unit": "g ai/ha"}, {"measurement": "Visual Growth Reduction (%) 21 Days After Application, LAMPU", "setting": "LAMPU, 17.5 g ai/ha", "value": "B (85-94)"}, {"measurement": "Visual Growth Reduction (%) 21 Days After Application, LAMPU", "setting": "LAMPU, 35 g ai/ha", "value": "A (95-100)"}, {"measurement": "Visual Growth Reduction (%) 21 Days After Application, LAMPU", "setting": "LAMPU, 70 g ai/ha", "value": "A (95-100)"}, {"measurement": "GR50, LAMPU", "setting": "LAMPU, dose for 50 percent growth reduction, probit analysis", "value": 3, "unit": "g ai/ha"}, {"measurement": "GR80, LAMPU", "setting": "LAMPU, dose for 80 percent growth reduction, probit analysis", "value": 6, "unit": "g ai/ha"}, {"measurement": "GR90, LAMPU", "setting": "LAMPU, dose for 90 percent growth reduction, probit analysis", "value": 9, "unit": "g ai/ha"}, {"measurement": "Visual Growth Reduction (%) 21 Days After Application, MATCH", "setting": "17.5 g ai/ha", "value": "G (0-29)"}, {"measurement": "Visual Growth Reduction (%) 21 Days After Application, MATCH", "setting": "35 g ai/ha", "value": "G (0-29)"}, {"measurement": "Visual Growth Reduction (%) 21 Days After Application, MATCH", "setting": "70 g ai/ha", "value": "G (0-29)"}, {"measurement": "Visual Growth Reduction (%) 21 Days After Application, PAPRH", "setting": "PAPRH, 17.5 g ai/ha", "value": "D (60-74)"}, {"measurement": "Visual Growth Reduction (%) 21 Days After Application, PAPRH", "setting": "PAPRH, 35 g ai/ha", "value": "A (95-100)"}, {"measurement": "Visual Growth Reduction (%) 21 Days After Application, PAPRH", "setting": "PAPRH, 70 g ai/ha", "value": "A (95-100)"}, {"measurement": "GR50, PAPRH", "setting": "PAPRH, dose for 50 percent growth reduction, probit analysis", "value": 11, "unit": "g ai/ha"}, {"measurement": "GR80, PAPRH", "setting": "PAPRH, dose for 80 percent growth reduction, probit analysis", "value": 17, "unit": "g ai/ha"}, {"measurement": "GR90, PAPRH", "setting": "PAPRH, dose for 90 percent growth reduction, probit analysis", "value": 22, "unit": "g ai/ha"}, {"measurement": "Visual Growth Reduction (%) 21 Days After Application, SASKR", "setting": "SASKR, 17.5 g ai/ha", "value": "F (30-44)"}, {"measurement": "Visual Growth Reduction (%) 21 Days After Application, SASKR", "setting": "SASKR, 35 g ai/ha", "value": "E (45-59)"}, {"measurement": "Visual Growth Reduction (%) 21 Days After Application, SASKR", "setting": "SASKR, 70 g ai/ha", "value": "C (75-84)"}, {"measurement": "GR50, SASKR", "setting": "SASKR, dose for 50 percent growth reduction, probit analysis", "value": 29, "unit": "g ai/ha"}, {"measurement": "GR80, SASKR", "setting": "SASKR, dose for 80 percent growth reduction, probit analysis", "value": 90, "unit": "g ai/ha"}, {"measurement": "GR90, SASKR", "setting": "SASKR, dose for 90 percent growth reduction, probit analysis", "value": ">140", "unit": "g ai/ha"}, {"measurement": "Visual Growth Reduction (%) 21 Days After Application, SINAR", "setting": "SINAR, 17.5 g ai/ha", "value": "C (75-84)"}, {"measurement": "Visual Growth Reduction (%) 21 Days After Application, SINAR", "setting": "SINAR, 35 g ai/ha", "value": "C (75-84)"}, {"measurement": "Visual Growth Reduction (%) 21 Days After Application, SINAR", "setting": "SINAR, 70 g ai/ha", "value": "A (95-100)"}, {"measurement": "GR50, SINAR", "setting": "SINAR, dose for 50 percent growth reduction, probit analysis", "value": 3, "unit": "g ai/ha"}, {"measurement": "GR80, SINAR", "setting": "SINAR, dose for 80 percent growth reduction, probit analysis", "value": 14, "unit": "g ai/ha"}, {"measurement": "GR90, SINAR", "setting": "SINAR, dose for 90 percent growth reduction, probit analysis", "value": 32, "unit": "g ai/ha"}, {"measurement": "Visual Growth Reduction (%) 21 Days After Application, TRZAS", "setting": "TRZAS, 17.5 g ai/ha", "value": "G (0-29)"}, {"measurement": "Visual Growth Reduction (%) 21 Days After Application, TRZAS", "setting": "TRZAS, 35 g ai/ha", "value": "G (0-29)"}, {"measurement": "Visual Growth Reduction (%) 21 Days After Application, TRZAS", "setting": "TRZAS, 70 g ai/ha", "value": "G (0-29)"}, {"measurement": "GR20, TRZAS", "setting": "TRZAS, dose for 20 percent growth reduction, probit analysis", "value": 66, "unit": "g ai/ha"}, {"measurement": "Visual Growth Reduction (%) 21 Days After Application, VERPE", "setting": "VERPE, 17.5 g ai/ha", "value": "B (85-94)"}, {"measurement": "Visual Growth Reduction (%) 21 Days After Application, VERPE", "setting": "VERPE, 35 g ai/ha", "value": "B (85-94)"}, {"measurement": "Visual Growth Reduction (%) 21 Days After Application, VERPE", "setting": "VERPE, 70 g ai/ha", "value": "A (95-100)"}, {"measurement": "GR50, VERPE", "setting": "VERPE, dose for 50 percent growth reduction, probit analysis", "value": 1, "unit": "g ai/ha"}, {"measurement": "GR80, VERPE", "setting": "VERPE, dose for 80 percent growth reduction, probit analysis", "value": 8, "unit": "g ai/ha"}, {"measurement": "GR90, VERPE", "setting": "VERPE, dose for 90 percent growth reduction, probit analysis", "value": 21, "unit": "g ai/ha"}, {"measurement": "Visual Growth Reduction (%) 21 Days After Application, VIOTR", "setting": "VIOTR, 17.5 g ai/ha", "value": "G (0-29)"}, {"measurement": "Visual Growth Reduction (%) 21 Days After Application, VIOTR", "setting": "VIOTR, 35 g ai/ha", "value": "E (45-59)"}, {"measurement": "Visual Growth Reduction (%) 21 Days After Application, VIOTR", "setting": "VIOTR, 70 g ai/ha", "value": "D (60-74)"}, {"measurement": "GR50, VIOTR", "setting": "VIOTR, dose for 50 percent growth reduction, probit analysis", "value": 44, "unit": "g ai/ha"}, {"measurement": "GR80, VIOTR", "setting": "VIOTR, dose for 80 percent growth reduction, probit analysis", "value": 119, "unit": "g ai/ha"}, {"measurement": "GR90, VIOTR", "setting": "VIOTR, dose for 90 percent growth reduction, probit analysis", "value": ">140", "unit": "g ai/ha"}]}
